# Experimental data published in patent US4073917A, “Local anesthetics tertiary aminoalkoxyphenyl ethers” (priority 1974, dated 1978).
# Columns and labels:
# sciatic nerve = assay: infiltration anesthesia, sciatic nerve block in the intact guinea-pig (Shackell); assay type: in vivo
# Method: B. The compounds according to the invention were also tested as to onset and duration of local anesthetic effect at parenteral administration (infiltration anesthesia). […] Four animals were used at each test. The results are depicted in the following table:
# The reference compound being used at this test is 2-(N-ethyl-n-propylamino)-2',6'-n-butyroxylidide (etidocaine).
# mice = settings: s.c.; taken from Adams et al; cited from earlier work
# [1] = system: back of the guinea-pig (intact skin); assay: surface anesthesia by epicutaneous application to intact skin, pricking test as in the intracutaneous wheal test; assay type: in vivo, guinea-pig (Dunkin-Hartley, males); settings: for Local anesthetic efficiency (percentage block during the 25 min testing period): ± s.e.m.
# From the text: A. Guinea-pigs (Dunkin-Hartley, males, 4-6 weeks of age 350±50 g) were shaved and depilated. A gauze folded twice (23 mm diameter) was put into the test solution and thereafter in a plastic cup (outer diameter 26 mm, inner diameter 24 mm, inner height 4 mm). The cup with the gauze saturated with test solution was attached to the back of the animal as an occlusive dressing fastened with plaster (25 mm width) wound around the body). […] After the end of the contact time the site of contact was washed and marked with a fatty chalk. With a sharp instrument (e.g. cannula or a pair of tweezers) the place was pricked six times and registering was made as in the intracutaneous wheal test (Bulbring-Wajda: J. Pharmacol., 1945, 85, p 78) on the back of the guinea-pig, i.e. by registering the presence or absence of a characteristic ripple of the skin of the back of the animal. Every pricking which gives no skin contraction was counted. The test was repeated at regular intervals of 5 min, during an interval of 30 min from the end of the application period. The test gives an indication of onset time, depth and duration of block. The percentage block during the 25 min testing period was used as an index for efficiency. The test solution consisted of the test compound (base) dissolved to 10% (w/v, g/ml) in a mixture of isopropanol (65%: v/v), glycerol (25%: v/v) and water (10%: v/v).
# The compound according to Example 1 (RAP 411) was tested also with varying concentrations and in the form of a hydrochloride salt in aqueous solution.
# [2] = acute toxicity in mice (LD 50); settings: mouse, in vivo
# Method: C. The acute toxicity for the base forms of a number of the new compounds were tested in mice.
# [3] = 5% base in the alcoholic mixture
# [4] = 10% (w/v) base in isopropanol 65%/glycerol 25%/water 10%, time of contact 30 min
# [5] = 10% hydrochloride in aqueous solution
compound,measurement,setting,value
"CCCN(CC)C(CC)C(=O)Nc1c(C)cccc1C (centres unmarked) [Etidocaine, 2-(N-ethyl-n-propylamino)-2',6'-n-butyroxylidide]","Flexion reflex block, duration","sciatic nerve; conc. 0.5%, pH 6.0",84 ± 17 min
same,"Flexion reflex block, onset","sciatic nerve; conc. 0.5%, pH 6.0",1 to 2 min
same,"Motor paralysis, duration","sciatic nerve; conc. 0.5%, pH 6.0",131 ± 13 min
same,"Motor paralysis, onset","sciatic nerve; conc. 0.5%, pH 6.0",1 min
same,LD 50 (base),mice,99 mg/kg
"CCCCOc1ccccc1OCCN(C(C)C)C(C)C [Example 1, 1-n-Butoxy-2-(2'-diisopropylaminoethoxy)-benzene]",anesthesia,[1]; [3],complete anesthesia
same,duration of complete anesthesia,[1]; [3],at least 30 min
same,Local anesthetic efficiency (percentage block during the 25 min testing period),[1]; [4],99.3 ± 0.7%
same,"Flexion reflex block, onset","sciatic nerve; conc. 0.5%, pH 6.0",1 min
same,"Motor paralysis, onset","sciatic nerve; conc. 0.5%, pH 6.0",1 min
same,LD50,[2]; iv,15 mg/kg
same,LD50,[2]; sc,250 mg/kg
"CCCOc1ccccc1OCCN(C(C)C)C(C)C [Example 2, 1-n-Propoxy-2-(2'-diisopropylaminoethoxy)-benzene]",Local anesthetic efficiency (percentage block during the 25 min testing period),[1]; [4],98.6 ± 0.8%
"CC(C)COc1ccccc1OCCN(C(C)C)C(C)C [Example 3, 1-Isobutoxy-2-(2'-diisopropylaminoethoxy)-benzene]",Local anesthetic efficiency (percentage block during the 25 min testing period),[1]; [4],97.2 ± 2.8%
same,LD50,[2]; iv,14 mg/kg
same,LD50,[2]; sc,300 mg/kg
"CCN(CC)CCOc1ccccc1OCC(C)C [Example 4, 1-Isobutoxy-2-(2'-diethylaminoethoxy)-benzene]",Local anesthetic efficiency (percentage block during the 25 min testing period),[1]; [4],97.2 ± 2.8%
same,LD50,[2]; iv,18 mg/kg
"CCN(CC)CCCOc1ccccc1OCC(C)C [Example 5, 1-Isobutoxy-2-(3'-diethylaminopropoxy)-benzene]",Local anesthetic efficiency (percentage block during the 25 min testing period),[1]; [4],75.7 ± 9.4%
same,LD50,[2]; iv,14 mg/kg
"CCCCOc1ccccc1OCCN1CCCCC1 [Example 6, 1-n-Butoxy-2-(2'-piperidinoethoxy)-benzene]",Local anesthetic efficiency (percentage block during the 25 min testing period),"[1]; 10% (w/v) base in alcoholic mixture, time of contact 15 min",79.2 ± 12.6%
same,LD50,[2]; iv,9 mg/kg
"CCN(CC)CC(=O)Nc1c(C)cccc1C [Lidocaine, diethylaminoacet-2,6-xylidide]","Flexion reflex block, duration","sciatic nerve; conc. 2.0%, pH 6.9",57 ± 7 min
same,"Flexion reflex block, onset","sciatic nerve; conc. 2.0%, pH 6.9",1 to 2 min
same,"Motor paralysis, duration","sciatic nerve; conc. 2.0%, pH 6.9",78 ± 5 min
same,"Motor paralysis, onset","sciatic nerve; conc. 2.0%, pH 6.9",1 min
"CCCCOc1ccccc1OCCN(C(C)C)C(C)C.Cl [RAP 411 hydrochloride, 1-n-butoxy-2-(2'-diisopropylaminoethoxy)-benzene hydrochloride]",anesthesia,[1]; [5],complete anesthesia
same,duration of complete anesthesia,[1]; [5],at least 30 min
"CCN(CC)CCOc1ccccc1OC [RAP 419, o-methoxy-(diethylaminoethoxy)-benzene, reference compound]",Local anesthetic efficiency (percentage block during the 25 min testing period),[1]; [4],0%
